Results published in ChEMBL document CHEMBL2176932, “De novo cyclic pseudopeptides containing aza-β3-amino acids exhibiting antimicrobial activities” (J Med Chem, 2012).
Values after ≈ are worked out from the molar mass of the structure shown.

Assays:
[1] = Toxicity in sheep RBC assessed as hemolytic activity at 100 uM after 1 hr; format: cell-based, Ovis aries, Erythrocyte; settings: sheep red blood cells, read-out: Activity
[2] = Toxicity in sheep RBC assessed as hemolytic activity after 1 hr; format: cell-based, Ovis aries, Erythrocyte; settings: sheep red blood cells
Aeromonas caviae = test: Antibacterial activity against Aeromonas caviae ATCC 15648 after 48 hrs by microtiter broth dilution method; format: functional; settings: ATCC 15648, 48 h
Klebsiella aerogenes = test: Antibacterial activity against Enterobacter aerogenes ATCC 13048 after 48 hrs by microtiter broth dilution method; format: functional; settings: ATCC 13048, 48 h
Klebsiella oxytoca = test: Antibacterial activity against Klebsiella oxytoca CIP 7932 after 48 hrs by microtiter broth dilution method; format: functional; settings: CIP 7932, 48 h
Pseudomonas aeruginosa = test: Antibacterial activity against Pseudomonas aeruginosa ATCC 27853 after 48 hrs by microtiter broth dilution method; format: functional; settings: ATCC 27853, 48 h
Salmonella enterica = test: Antibacterial activity against Salmonella enterica ATCC 13076 after 48 hrs by microtiter broth dilution method; format: functional; settings: ATCC 13076, 48 h
Escherichia coli = test: Antibacterial activity against Escherichia coli ATCC 25922 after 48 hrs by microtiter broth dilution method; format: functional; settings: ATCC 25922, 48 h
Listeria monocytogenes = test: Antibacterial activity against Listeria monocytogenes SOR 100 after 48 hrs by microtiter broth dilution method; format: functional; settings: SOR 100, 48 h
Staphylococcus aureus = test: Antibacterial activity against Staphylococcus aureus ATCC 25923 after 48 hrs by microtiter broth dilution method; format: functional; settings: ATCC 25923, 48 h
Lactococcus garvieae = test: Antibacterial activity against Lactococcus garvieae ATCC 43921 after 48 hrs by microtiter broth dilution method; format: functional; settings: ATCC 43921, 48 h
Micrococcus luteus = test: Antibacterial activity against Micrococcus luteus ATCC 10240 after 48 hrs by microtiter broth dilution method; format: functional; settings: ATCC 10240, 48 h
Streptococcus equinus = test: Antibacterial activity against Streptococcus equinus ATCC 5623 after 48 hrs by microtiter broth dilution method; format: functional; settings: ATCC 5623, 48 h
Enterococcus faecalis = test: Antibacterial activity against Enterococcus faecalis CIP 186 after 48 hrs by microtiter broth dilution method; format: functional; settings: CIP 186, 48 h
Priestia megaterium = test: Antibacterial activity against Bacillus megaterium ATCC 10778 after 48 hrs by microtiter broth dilution method; format: functional; settings: ATCC 10778, 48 h
[3] = Half life in bovine serum; format: ADME, cell-free, Bos taurus; settings: cattle
[4] = Selectivity ratio of MHC for sheep RBC to MIC for Staphylococcus aureus ATCC 25923; format: functional
[5] = Selectivity ratio of HC50 for sheep RBC to MIC for Staphylococcus aureus ATCC 25923; format: functional

Compound | hemolysis at 1 h, 100 µM [1] [%] | HC50 at 1 h [2] [µM] | MIC (Aeromonas caviae) [µM] | MIC (Klebsiella aerogenes) [µM] | MIC (Klebsiella oxytoca) [µM] | MIC (Pseudomonas aeruginosa) [µM] | MIC (Salmonella enterica) [µM] | MIC (Escherichia coli) [µM] | MIC (Listeria monocytogenes) [µM] | MIC (Staphylococcus aureus) [µM] | MIC (Lactococcus garvieae) [µM] | MIC (Micrococcus luteus) [µM] | MIC (Streptococcus equinus) [µM] | MIC (Enterococcus faecalis) [µM] | MIC (Priestia megaterium) [µM] | half-life [3] [h] | Selectivity ratio [4] | Selectivity ratio [5]
C[C@@H](O)[C@@H]1NC(=O)CN(CCCCN)NC(=O)[C@H](Cc2ccccc2)NC(=O)CN(Cc2cccc3ccccc23)NC(=O)[C@H](CO)NC(=O)CN(CCCCN)NC(=O)[C@H](CO)NC(=O)CN(CCCCN)NC1=O | 0 | > 100 | > 100 | > 100 | > 100 | 100 (≈ 106 µg/mL) | > 100 | 100 (≈ 106 µg/mL) | > 100 | > 100 | > 100 | > 100 | > 100 | > 100 | > 100 |  |  | 
CC[C@H](C)[C@H](NC(=O)CN)C(=O)NCC(=O)N[C@@H](C)C(=O)N[C@H](C(=O)N[C@@H](CC(C)C)C(=O)N[C@@H](CCCCN)C(=O)N[C@H](C(=O)N[C@@H](CC(C)C)C(=O)N[C@H](C(=O)N[C@H](C(=O)NCC(=O)N[C@@H](CC(C)C)C(=O)N1CCC[C@H]1C(=O)N[C@@H](C)C(=O)N[C@@H](CC(C)C)C(=O)N[C@H](C(=O)N[C@@H](CO)C(=O)N[C@@H](Cc1c[nH]c2ccccc12)C(=O)N[C@H](C(=O)N[C@@H](CCCCN)C(=O)N[C@@H](CCCNC(=N)N)C(=O)N[C@@H](CCCCN)C(=O)N[C@@H](CCCNC(=N)N)C(=O)N[C@@H](CCC(N)=O)C(=O)N[C@@H](CCC(N)=O)C(N)=O)[C@@H](C)CC)[C@@H](C)CC)[C@@H](C)O)[C@@H](C)O)C(C)C)C(C)C [MELITTIN] |  |  | > 100 | 12.5 (≈ 35.6 µg/mL) | 25 (≈ 71.2 µg/mL) |  | 25 (≈ 71.2 µg/mL) |  |  |  | 6.25 (≈ 17.8 µg/mL) | 1.56 (≈ 4.44 µg/mL) | 3.12 (≈ 8.88 µg/mL) | 12.5 (≈ 35.6 µg/mL) | 6.25 (≈ 17.8 µg/mL) | 0.06 |  | 
CC(C)CN1CC(=O)N[C@@H](Cc2c[nH]c3ccccc23)C(=O)NN(CC(C)C)CC(=O)N[C@@H](CCCCN)C(=O)NN(CCCCN)CC(=O)N[C@@H](CCCCN)C(=O)N1 | 0 | > 100 | > 100 | > 100 | > 100 | > 100 | > 100 | > 100 | > 100 | > 100 | > 100 | 100 (≈ 84.2 µg/mL) | > 100 | > 100 | 50 (≈ 42.1 µg/mL) |  |  | 
CC(C)CN1CC(=O)N[C@@H](Cc2c[nH]c3ccccc23)C(=O)NN(CC(C)C)CC(=O)N[C@@H](CCCCN)C(=O)NN(CCCCN)CC(=O)N[C@@H](Cc2c[nH]c3ccccc23)C(=O)N1 | 0 | > 100 | > 100 | > 100 | > 100 | > 100 | > 100 | > 100 | > 100 | > 100 | > 100 | 50 (≈ 45 µg/mL) | 100 (≈ 90 µg/mL) | > 100 | 25 (≈ 22.5 µg/mL) |  |  | 
CC(C)C[C@@H]1NC(=O)CN(Cc2cccc3ccccc23)NC(=O)[C@H](CCCNC(=N)N)NC(=O)CN(CCCNC(=N)N)NC(=O)[C@H](CC(C)C)NC1=O | 0 | > 100 | > 100 | > 100 | > 100 | > 100 | > 100 | > 100 | > 100 | > 100 | > 100 | 25 (≈ 19.1 µg/mL) | 100 (≈ 76.6 µg/mL) | > 100 | 25 (≈ 19.1 µg/mL) |  |  | 
CCCCCCCCCCCCN1CC(=O)N[C@@H](Cc2c[nH]c3ccccc23)C(=O)NN(Cc2cccc3ccccc23)CC(=O)N[C@@H](CCCCN)C(=O)NN(CCCCN)CC(=O)N[C@@H](CC2CCCCC2)C(=O)N1 | 62 | 50 | > 100 | > 100 | > 100 | > 100 | > 100 | > 100 | 12.5 (≈ 13.3 µg/mL) | 25 (≈ 26.6 µg/mL) | 50 (≈ 53.2 µg/mL) | 12.5 (≈ 13.3 µg/mL) | 12.5 (≈ 13.3 µg/mL) | 12.5 (≈ 13.3 µg/mL) | 12.5 (≈ 13.3 µg/mL) | > 2 | 0.12 | 2
CC(C)CN1CC(=O)N[C@@H](Cc2c[nH]c3ccccc23)C(=O)NN(CCCCN)CC(=O)N[C@@H](CCCCN)C(=O)NN(CCCCN)CC(=O)N[C@@H](Cc2c[nH]c3ccccc23)C(=O)N1 | 0 | > 100 | > 100 | > 100 | > 100 | > 100 | > 100 | > 100 | > 100 | > 100 | > 100 | 100 (≈ 91.5 µg/mL) | > 100 | > 100 | 25 (≈ 22.9 µg/mL) |  |  | 
CC(C)C[C@@H]1NC(=O)CN(Cc2ccc3ccccc3c2)NC(=O)[C@H](CCCCN)NC(=O)CN(CCCCN)NC(=O)CN(Cc2ccc3ccccc3c2)NC1=O | 0 | > 100 | > 100 | > 100 | > 100 | 100 (≈ 80.9 µg/mL) | 100 (≈ 80.9 µg/mL) | > 100 | 100 (≈ 80.9 µg/mL) | > 100 | > 100 | 6.25 (≈ 5.06 µg/mL) | 25 (≈ 20.2 µg/mL) | > 100 | 12.5 (≈ 10.1 µg/mL) |  |  | 
CCCCCCCCN1CC(=O)N[C@@H](Cc2c[nH]c3ccccc23)C(=O)NN(CCCCCCCC)CC(=O)N[C@@H](CCCCN)C(=O)NN(CCCCN)CC(=O)N[C@@H](Cc2c[nH]c3ccccc23)C(=O)N1 | 55 | 90 | > 100 | > 100 | > 100 | 25 (≈ 25.3 µg/mL) | > 100 | > 100 | 3.12 (≈ 3.16 µg/mL) | 6.25 (≈ 6.33 µg/mL) | 6.25 (≈ 6.33 µg/mL) | 3.12 (≈ 3.16 µg/mL) | 6.25 (≈ 6.33 µg/mL) | 12.5 (≈ 12.7 µg/mL) | 6.25 (≈ 6.33 µg/mL) | > 2 | 1 | 14.4
CC(C)C[C@H]1NC(=O)CN(CCCCN)NC(=O)[C@H](CCCCN)NC(=O)CN(Cc2cccc3ccccc23)NC(=O)CN(CC(C)C)NC1=O | 0 | > 100 | > 100 | > 100 | > 100 | > 100 | > 100 | > 100 | > 100 | > 100 | > 100 | 50 (≈ 36.2 µg/mL) | 100 (≈ 72.5 µg/mL) | > 100 | 50 (≈ 36.2 µg/mL) |  |  | 
